From patent US6150414A, “Compositions and methods for treating viral infections” (priority 1992, dated 2000)
“And” between values parts separate entries of the source, which are not always exact repeats. Equal entries are not always repeated. Where two headings read alike, the source gives them in different places.

Assays:
[1] = Stability to light and pH; type: physicochemical; conditions: irradiation / exposure to light
[2] = molecular target: T1, Radiation Leukemia Virus reverse transcriptase (Radiation murine leukemia virus, UniProt P11227); assay: Radiation Leukemia Virus reverse transcriptase assay, supernatants from infected AQR cells (Examples 4 and 9); type: biochemical; conditions: for inhibition at 50 ng / inhibition at 0.0001 mg / inhibition at 0.0005 mg / inhibition at 0.001 mg / inhibition at 0.002 mg / inhibition at 0.005 mg / inhibition at 0.01 mg: 0.5 h; for inhibition at 0.01 mg: read-out: Average % Inhibition; for CPM: replicate
T1 construct: the reverse transcriptase of Radiation Leukemia Virus; endogenous in cells
In short: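 Supernatants from AQR cells chronically infected with RadLV were incubated 30 min on ice with the test compound (hypericin, protohypericin or HHA). Virus was pelleted at 100,000×g for 1 h at 4 °C, and the pellet was assayed for reverse transcriptase activity.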

Friend Virus = assay: Friend Virus-induced splenomegaly, WIS compounds (Example 8); type: in vivo, mice; design: Actual Spleen Weight / Average Spleen Weight: unit not given here; conditions: for Average % Inhibition / Average Spleen Weight / Actual Spleen Weight: Table VII; for Actual Spleen Weight: single animal
Experimental: The effects of compositions according to the present invention on the increase in spleen size (splenomegaly) of BALB/c mice (Jackson Labs, Bar Harbor, ME) was examined. In these experiments, the virus (10^6 focus forming units--FFU) was inoculated intravenously and 100 micrograms of the compounds indicated in Table II were administered to the mice intraperitoneally 24 hours later. Each compound was administered once to two mice. The animals were sacrificed ten days later and their spleens weighed.
As used in Table II (and subsequent Tables of this Example l(a) and (b), "average percent inhibition" is calculated as follows: [formula] wherein "ASWNC" designates "average spleen weight of negative control"; "ASWE" designates "average spleen weight of experimental (treated) subject"; and "ASWPC" designates "average spleen weight of positive control". Average spleen weight is the numerical average of spleen weights of each experimental group (in Table II each such group includes two members).
The AAB compounds whose synthesis is described above were assayed for antiviral activity. WIS-2, -3, -4, -5 and -6 were tested to determine their biological effects on Friend Virus-induced splenomegaly using the procedure and technique set forth in Example 1 above. The assay results (three mice per group were tested each at different concentrationss of the active composition except for the PBS-negative control wherein two animals per group were used) are reported in Table VII below.

[3] = system: virus budding in virus-producing cells; assay: In vitro inhibition of virus budding: production of defective budded virions (Example 10); type: cell-based; conditions: in vitro; Table IX; read-out: EC50 for production of defective budded virions
Excerpt: (§1) The results presented above in Table IX are presented as EC50 concentrations. These are the effective concentrations which inhibit 50% of the viruses in micromolar concentrations.

retroviruses (virions) = assay: Direct inactivation of retroviruses (virions) in vitro (Example 10); type: biochemical, Radiation Leukemia Virus; conditions: Table IX
In short: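 RadLV-containing supernatants from chronically infected B10.T(6R) cells incubated 30 min on ice with hypericin or protohypericin. Virions then pelleted at 100,000×g for 1 h at 4° C and assayed for reverse transcriptase activity. EC50 is the micromolar concentration inhibiting 50% of virus.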

Friend Leukemia Virus = assay: In vivo inhibition of Friend Leukemia Virus splenomegaly, intravenous 1-2 hours post infection (Example 10); design: species or system mice; conditions: Mus musculus, read-out: EC50 for FV-induced splenomegaly
Experimental: (§2) (3) In vivo inhibition of Friend Leukemia Virus Splenomegaly performed as described in Example 1 above except that the compounds were administered intravenously 1-2 hours post infection.
as §1

retroviruses = assay: Comparison over two in vitro and one in vivo biological assays (Example 10); conditions: Example 10
Experimental: In order to investigate the structural features of hypericin which are essential for antiretroviral activity, numerous analogs and precursors of hypericin were examined for activity in two in vitro and one in vivo biological assay.
(1) Direct inactivation of retroviruses in vitro, performed as in Example 3 above;
as §2

[4] = molecular target: T1, Radiation Leukemia Virus reverse transcriptase; assay: Reverse transcriptase assay of Radiation Leukemia Virus from B10.T(6R) cell supernatants (Example 3); type: biochemical; conditions: for Average CPM / CPM / Average percent inhibition: Table V; for CPM: replicate
Experimental: Supernatants (10 ml/tube) from B10.T(6R) cells (Meruelo et al. J. Exp. Med. 147: 470-487, 1978) chronically infected with Radiation Leukemia Virus (RadLV) were obtained by centrifugation of cells in culture at 4° C., 3500 rpm for 15 minutes. The top 2/3 of the supernatant were removed and aliquots were incubated for 30 minutes on ice with the indicated amounts of hypericin or protohypericin. […] Thereafter, supernatants were centrifuged at 100,000×g using a TI70 rotor (Beckman Instruments) for 1 hour at 4° C. The pellet was […] and analyzed for reverse transcriptase activity as follows.
The reverse transcriptase assay was performed in a volume of 100 microliters containing the following components:
The reverse transcriptase assay provides a measure of the antiviral activity of the compounds tested by reference to the observed decrease in activity of this enzyme.
In Table V, "CPM" is "counts per minute", "Average" is the numerical average of CPM values within each group of animals.

## O=c1c2ccccc2c2c3c1c(O)cc(O)c3c1c(O)cc(O)c3c(=O)c4ccccc4c2c31 [WIS-2, Tetrahydroxy-dibenzoperylene-dione]
[1]
  stability to light: did not change upon irradiation
[2]; 0.05 micrograms, Table VIII
  inhibition at 50 ng: 41.6%
[2]; 0.1 micrograms, Table VIII
  inhibition at 0.0001 mg: 70.8%
[2]; 0.5 micrograms, Table VIII
  inhibition at 0.0005 mg: 98.1%
[2]; 1 microgram, Table VIII
  inhibition at 0.001 mg: 98.7%
[2]; 2 micrograms, Table VIII
  inhibition at 0.002 mg: 99.5%
[2]; 5 micrograms, Table VIII
  inhibition at 0.005 mg: 99.5%
[2]; 10 micrograms, Table VIII
  inhibition at 0.01 mg: 99.5%
Friend Virus; 1 microgram
  Average % Inhibition: 53.9%
  Average Spleen Weight: 0.7015
  Actual Spleen Weight: 0.6615 and 0.7519 and 0.6912
Friend Virus; 10 micrograms
  Average % Inhibition: 62.7%
  Average Spleen Weight: 0.4701
  Actual Spleen Weight: 0.4263 and 0.4868 and 0.4972
Friend Virus; 50 micrograms
  Average % Inhibition: 64.0%
  Average Spleen Weight: 0.4603
  Actual Spleen Weight: 0.4818 and 0.4925 and 0.4066
Friend Virus; 150 micrograms
  Average % Inhibition: 66.3%
  Average Spleen Weight: 0.4416
  Actual Spleen Weight: 0.4075 and 0.4656 and 0.4517

## O=c1c2c(O)ccc3c4ccc(O)c5c(=O)c6c(O)cc(O)c7c8c(O)cc(O)c1c8c(c23)c(c54)c67 [WIS-3, desmethylhypericin]
[3]
  EC50: 2 µM
Retroviruses (virions)
  EC50: 0.07 µM
Friend Leukemia Virus
  EC50: 174 µM
retroviruses
  activity across assays: high degree of activity in a more than one assay
[2]; 0.05 micrograms, Table VIII
  Average CPM: 78,424 CPM
  CPM: 89,170 CPM and 67,678 CPM
  inhibition at 50 ng: 90.4%
[2]; 0.1 micrograms, Table VIII
  Average CPM: 20,893 CPM
  CPM: 19,322 CPM and 22,464 CPM
  inhibition at 0.0001 mg: 97.4%
[2]; 0.5 micrograms, Table VIII
  Average CPM: 2,799 CPM
  CPM: 2,630 CPM and 2,968 CPM
  inhibition at 0.0005 mg: 99.7%
[2]; 1 microgram, Table VIII
  Average CPM: 24,606 CPM
  CPM: 21,896 CPM and 27,316 CPM
  inhibition at 0.001 mg: 97%
[2]; 2 micrograms, Table VIII
  Average CPM: 15,467 CPM
  CPM: 14,020 CPM and 16,914 CPM
  inhibition at 0.002 mg: 98.1%
[2]; 5 micrograms, Table VIII
  Average CPM: 76,907 CPM
  CPM: 75,776 CPM and 78,038 CPM
  inhibition at 0.005 mg: 90.6%
[2]; 10 micrograms, Table VIII
  Average CPM: 119,248 CPM
  CPM: 57,512 CPM and 61,736 CPM
[2]
  inhibition at 0.01 mg: 85.4%
[2]; Example 9
  inhibition of RadLV reverse transcriptase activity: highest level of antiviral activity of the compounds that were tested in this assay
Friend Virus; 1 microgram
  Average % Inhibition: 24.3%
  Average Spleen Weight: 0.7737
  Actual Spleen Weight: 0.7527 and 0.8048 and 0.7277
Friend Virus; 10 micrograms
  Average % Inhibition: 24.1%
  Average Spleen Weight: 0.7759
  Actual Spleen Weight: 0.7727 and 0.8108 and 0.7413
Friend Virus; 50 micrograms
  Average % Inhibition: 34.7%
  Average Spleen Weight: 0.6921
  Actual Spleen Weight: 0.6998 and 0.6723 and 0.7041
Friend Virus; 150 micrograms
  Average % Inhibition: 79.7%
  Average Spleen Weight: 0.3290
  Actual Spleen Weight: 0.2967 and 0.3518 and 0.3384
Friend Virus; Example 8
  antiviral activity in splenomegaly assay: most active compounds of the group in the splenomegaly assay

## Cc1cc(O)c2c(=O)c3c(O)cc(O)c4c5c(O)cc(O)c6c(=O)c7c(O)cc(C)cc7c(c65)c(c2c1)c34 [protohypericin, Protohypericin]
Retroviruses (virions)
  EC50: 7.9 µM
Friend Leukemia Virus
  EC50: 98 µM
[1]
  stability to light: converts to hypericin upon exposure to light
[4]; 0.05 micrograms
  Average CPM: 309,103 CPM
  CPM: 310,952 CPM and 307,254 CPM
[4]; 0.1 micrograms
  Average CPM: 261,083 CPM
  CPM: 216,824 CPM and 305,342 CPM
[4]; 0.5 micrograms
  Average CPM: 257,879 CPM
  CPM: 264,710 CPM and 251,048 CPM
[4]; 1 microgram
  Average CPM: 227,614 CPM
  CPM: 192,184 CPM and 263,044 CPM
[4]; 5 micrograms
  Average CPM: 12,633 CPM
  Average percent inhibition: 94.0%
  CPM: 12,358 CPM and 12,908 CPM
[4]; 10 micrograms
  Average CPM: 185,539 CPM
  Average percent inhibition: 11.3%
  CPM: 202,656 CPM and 168,422 CPM
[4]; 50 micrograms
  Average CPM: 71,641 CPM
  Average percent inhibition: 65.8%
  CPM: 75,816 CPM and 67,466 CPM
[4]; 100 micrograms
  Average CPM: 10,281 CPM
  Average percent inhibition: 95.1%
  CPM: 8,818 CPM and 11,744 CPM
[4]; Example 3
  inhibition of RadLV reverse transcriptase activity: significantly inhibited the reverse transcriptase activity of RadLV
[4]; RadLV, vs hypericin
  concentration required relative to hypericin for the same degree of RT inhibition: 10 to 100 fold
